This note sets out measurements from patent publication US8980926B2, “2-aminoindole compounds and methods for the treatment of malaria” (Genzyme Corporation, priority 2009, dated 2015).

Each structure is given as a SMILES string.

This assay has as its system P. falciparum strain 3D7. The experiment in a line: In vitro potency against P. falciparum strain 3D7 (SYBR green/DAPI). The assay is classed as cell-based. The note with it: Plasmodium falciparum, reductions in parasitemia, read-out: IC50 values.
One may read the IC50 as the concentration that gives 50% inhibition. `NC1=Nc2ccccc2C1(O)c1ccccc1` (centres unmarked) [Compound 4]: the IC50 lay within 100 to 500 nM. With `COc1ccc(C2(O)C(N)=Nc3ccccc32)cc1` (centres unmarked) [Compound 5] the figure was 100 to 500 nM. With `CC(C)(C)c1ccc(C2(O)C(N)=Nc3ccccc32)cc1` (centres unmarked) [Compound 6] the figure was 500 to 1000 nM; with `COc1cccc(C2(O)C(N)=Nc3ccccc32)c1` (centres unmarked) [Compound 7], 100 to 500 nM. As to `NC1=Nc2ccccc2C1(O)c1ccc(C(F)(F)F)cc1` (centres unmarked) [Compound 8], the IC50 was in the range of 100 to 500 nM. With `CC1(O)C(N)=Nc2ccccc21` (centres unmarked) [Compound 9], the IC50 is 1000 to 5000 nM. With `NC1=Nc2ccccc2C1(O)c1cccc2ccccc12` (centres unmarked) [Compound 10] the figure was 1 to 100 nM; with `NC1=Nc2ccc(Cl)cc2C1(O)c1ccc(F)c2ccccc12` (centres unmarked) [Compound 12], 1 to 100 nM. With `NC1=Nc2ccc(Cl)cc2C1(O)c1ccc2c(c1)OCO2` (centres unmarked) [Compound 13] the figure was 100 to 500 nM. With `NC1=Nc2ccc(Cl)cc2C1(O)c1cccc(C(F)(F)F)c1` (centres unmarked) [Compound 14] the figure was 100 to 500 nM; with `CN(C)c1cccc(C2(O)C(N)=Nc3ccccc32)c1` (centres unmarked) [Compound 15], 100 to 500 nM; with `NC1=Nc2ccc(Cl)cc2C1(O)c1ccc(C(F)(F)F)cc1` (centres unmarked) [Compound 16], 100 to 500 nM. Consider `NC1=Nc2ccc(Cl)cc2C1(O)c1ccc(N2CCOCC2)cc1` (centres unmarked) [Compound 17], for which the IC50 was in the range of 500 to 1000 nM. With `CC(C)(C)c1ccc(C2(O)C(N)=Nc3ccc(Cl)cc32)cc1` (centres unmarked) [Compound 18] the figure was 100 to 500 nM; with `NC1=Nc2ccccc2C1(O)c1cccc(C(F)(F)F)c1` (centres unmarked) [Compound 19], 100 to 500 nM; with `NC1=Nc2ccccc2C1(O)c1ccc(N2CCOCC2)cc1` (centres unmarked) [Compound 20], 500 to 1000 nM. Regarding `CN(C)c1cccc(C2(O)C(N)=Nc3ccc(Cl)cc32)c1` (centres unmarked) [Compound 21], the IC50 is 100 to 500 nM. With `Cc1ccc(C2(O)C(N)=Nc3ccc(Cl)cc32)cc1` (centres unmarked) [Compound 22] the figure was 500 to 1000 nM. Take `COc1cccc(C2(O)C(N)=Nc3ccc(Cl)cc32)c1` (centres unmarked) [Compound 23]: the IC50 is 100 to 500 nM. With `NC1=Nc2ccc(Cl)cc2C1(O)c1ccc2ccccc2c1` (centres unmarked) [Compound 24] the figure was 100 to 500 nM. With `NC1=Nc2ccccc2C1(O)c1ccc2ccccc2c1` (centres unmarked) [Compound 25] the figure was 100 to 500 nM; with `CCCCC1(O)C(N)=Nc2ccc(Cl)cc21` (centres unmarked) [Compound 26], 100 to 500 nM; with `CC(C)c1ccccc1C1(O)C(N)=Nc2ccc(Cl)cc21` (centres unmarked) [Compound 27], 1 to 100 nM. With `NC1=Nc2ccc(Cl)cc2C1(O)c1cccc(F)c1` (centres unmarked) [Compound 28] the figure was 100 to 500 nM; with `Cc1ccccc1C1(O)C(N)=Nc2ccccc21` (centres unmarked) [Compound 30], 100 to 500 nM. For `NC1=Nc2cccc(Cl)c2C1(O)c1ccccc1` (centres unmarked) [Compound 33], the IC50 fell in the range of 100 to 500 nM.

As to `NC1=Nc2cc(Cl)ccc2C1(O)c1ccccc1` (centres unmarked) [Compound 34], the IC50 lay in the range of 500 to 1000 nM. With `NC1=Nc2c(Cl)cccc2C1(O)c1ccccc1` (centres unmarked) [Compound 35] the figure was 1000 to 5000 nM.

Take `NC1=Nc2ccc(F)cc2C1(O)c1ccccc1` (centres unmarked) [Compound 36]: the IC50 lay in the range of 100 to 500 nM. With `NC1=Nc2ccc(Cl)c(Cl)c2C1(O)c1ccccc1` (centres unmarked) [Compound 40] the figure was 100 to 500 nM; with `NC1=Nc2ccc(Br)cc2C1(O)c1ccccc1` (centres unmarked) [Compound 41], 1 to 100 nM. In the case of `COc1ccc2c(c1)C(O)(c1ccccc1)C(N)=N2` (centres unmarked) [Compound 42], the IC50 is 100 to 500 nM. Take `NC1=Nc2ccc(Cl)cc2C1(O)CC1CCCCC1` (centres unmarked) [Compound 43]: the IC50 is 1 to 100 nM.

In the case of `COc1cc(C2(O)C(N)=Nc3ccc(Cl)cc32)c2c(ccn2C)c1` (centres unmarked) [Compound 44], the IC50 is 5000 to 15000 nM.

As to `COc1cc(C2(O)C(N)=Nc3ccc(Cl)cc32)c2ccccc2c1` (centres unmarked) [Compound 45], the IC50 was in the range of 5000 to 15000 nM. As to `NC1=Nc2c(ccc(Cl)c2Cl)C1(O)c1ccccc1` (centres unmarked) [Compound 46], the IC50 is 1000 to 5000 nM.

As for `NC1=Nc2ccc(OC(F)(F)F)cc2C1(O)c1ccccc1` (centres unmarked) [Compound 47], the IC50 lay within 1000 to 5000 nM. With `CCCCc1ccc2c(c1)C(O)(c1ccccc1)C(N)=N2` (centres unmarked) [Compound 48] the figure was 500 to 1000 nM; with `NC1=Nc2ccc(Cl)cc2C1(O)c1ccccn1` (centres unmarked) [Compound 49], 1000 to 5000 nM. With `NC1=Nc2cc(Cl)c(Cl)cc2C1(O)c1ccccc1` (centres unmarked) [Compound 51] the figure was 500 to 1000 nM; with `NC1=Nc2cc(Cl)cc(Cl)c2C1(O)c1ccccc1` (centres unmarked) [Compound 52], 1000 to 5000 nM. Take `CC(C)c1ccc2c(c1)C(O)(c1ccccc1)C(N)=N2` (centres unmarked) [Compound 53]: the IC50 fell in the range of 500 to 1000 nM. With `CC(C)CC1(O)C(N)=Nc2ccc(Cl)cc21` (centres unmarked) [Compound 54] the figure was 100 to 500 nM; with `NC1=Nc2c(Cl)cc(Cl)cc2C1(O)c1ccccc1` (centres unmarked) [Compound 55], 1000 to 5000 nM.

As for `COc1cc2c(cc1OC)C(O)(c1ccccc1)C(N)=N2` (centres unmarked) [Compound 56], the IC50 lay within 100 to 500 nM. With `NC1=Nc2cc3c(cc2C1(O)c1ccccc1)OCO3` (centres unmarked) [Compound 57] the figure was 100 to 500 nM. Take `NC1=Nc2ccc(Cl)cc2C1(O)c1cccc2cccnc12` (centres unmarked) [Compound 58]: the concentration for half-maximal inhibition (IC50) fell in the range of 100 to 500 nM. With `NC1=Nc2ccc(Cl)cc2C1(O)c1cccc2ncccc12` (centres unmarked) [Compound 59] the figure was 100 to 500 nM; with `NC1=Nc2ccc(Cl)cc2C1(O)c1nccs1` (centres unmarked) [Compound 60], 1000 to 5000 nM. Take `COc1ccc2c(c1)C(O)(c1cc(OC)cc3ccccc13)C(N)=N2` (centres unmarked) [Compound 61]: the IC50 was in the range of 5000 to 15000 nM. With `NC1=Nc2ccc(O)cc2C1(O)c1ccccc1` (centres unmarked) [Compound 62] the figure was 5000 to 15000 nM; with `COc1cc(C2(O)C(N)=Nc3ccc(C)cc32)c2ccccc2c1` (centres unmarked) [Compound 63], 5000 to 15000 nM; with `CCOc1nc(Cl)ccc1C1(O)C(N)=Nc2ccc(C)cc21` (centres unmarked) [Compound 64], 5000 to 15000 nM. Regarding `NC1=Nc2ccc(OCc3ccccc3)cc2C1(O)c1ccccc1` (centres unmarked) [Compound 65], the IC50 was in the range of 5000 to 15000 nM.

Turning to `NC1=Nc2ncccc2C1(O)c1ccccc1` (centres unmarked) [Compound 66], the IC50 lay in the range of 5000 to 15000 nM. With `NC1=Nc2ccc(Cl)cc2C1(O)c1cccc2c1OCC2` (centres unmarked) [Compound 67] the figure was 1 to 100 nM; with `CN(C)c1ccc(C2(O)C(N)=Nc3ccc(Cl)cc32)c2ccccc12` (centres unmarked) [Compound 68], 1 to 100 nM.

As for `NC1=Nc2ccc(Cl)cc2C1(O)c1cccc2c1oc1ccccc12` (centres unmarked) [Compound 69], the IC50 is 100 to 500 nM. With `COc1ccccc1C1(O)C(N)=Nc2ccc(Cl)cc21` (centres unmarked) [Compound 70] the figure was 1 to 100 nM. With `Cc1ccccc1C1(O)C(N)=Nc2ccc(Cl)cc21` (centres unmarked) [Compound 71] the figure was 1 to 100 nM.

With `COc1ccc(C2(O)C(N)=Nc3ccc(Cl)cc32)cc1` (centres unmarked) [Compound 72], the IC50 was 500 to 1000 nM. Consider `COc1cccc(C2(O)C(N)=Nc3ccc(Cl)cc32)c1OC` (centres unmarked) [Compound 73], for which the IC50 fell in the range of 1 to 100 nM. Take `NC1=Nc2ccc(Cl)cc2C1(O)CCc1ccccc1` (centres unmarked) [Compound 74]: the IC50 is 100 to 500 nM. With `CC(C)(C)C1(O)C(N)=Nc2ccc(Cl)cc21` (centres unmarked) [Compound 75] the figure was 100 to 500 nM. As to `CC(C)Oc1ccc2c(c1)C(O)(c1ccccc1)C(N)=N2` (centres unmarked) [Compound 76], the IC50 lay within 100 to 500 nM. With `NC1=Nc2cc3c(cc2C1(O)c1ccccc1)OCCO3` (centres unmarked) [Compound 77] the figure was 100 to 500 nM. Take `COc1ccc(C2(O)C(N)=Nc3ccc(Cl)cc32)c2ccccc12` (centres unmarked) [Compound 78]: the IC50 was in the range of 1 to 100 nM.

On to `NC1=Nc2ccc(Cl)cc2C1(O)c1ccncc1` (centres unmarked) [Compound 79], for which the IC50 lay within 1000 to 5000 nM. With `CN(C)c1ccccc1C1(O)C(N)=Nc2ccc(Cl)cc21` (centres unmarked) [Compound 80] the figure was 1 to 100 nM.

In the case of `NC1=Nc2ccc(Cl)cc2C1(O)c1cccc2cnccc12` (centres unmarked) [Compound 81], the IC50 was 100 to 500 nM. With `NC1=Nc2ccc(Cl)cc2C1(O)c1cccc2ccsc12` (centres unmarked) [Compound 82] the figure was 1 to 100 nM; with `NC1=Nc2ccc(Cl)cc2C1(O)c1ccc(F)cc1` (centres unmarked) [Compound 83], 100 to 500 nM. With `Cc1cccc(C2(O)C(N)=Nc3ccc(Cl)cc32)c1C` (centres unmarked) [Compound 84] the figure was 100 to 500 nM; with `NC1=Nc2ccc(Cl)cc2C1(O)c1ccc(O)cc1` (centres unmarked) [Compound 85], 5000 to 15000 nM; with `COc1ccc(C2(O)C(N)=Nc3ccc(Cl)cc32)c(OC)c1` (centres unmarked) [Compound 86], 1 to 100 nM. With `NC1=Nc2ccc(-c3ccccc3)cc2C1(O)c1ccccc1` (centres unmarked) [Compound 87] the figure was 100 to 500 nM; with `N#Cc1ccc2c(c1)C(O)(c1ccccc1)C(N)=N2` (centres unmarked) [Compound 88], 1000 to 5000 nM; with `NC1=Nc2ccc(Cl)cc2C1(O)c1ccccc1F` (centres unmarked) [Compound 89], 100 to 500 nM. Regarding `Cc1ccc(C2(O)C(N)=Nc3ccc(Cl)cc32)c(C)c1` (centres unmarked) [Compound 90], the IC50 was in the range of 100 to 500 nM. For `NC1=Nc2ccc(Cl)cc2C1(O)C1CC1` (centres unmarked) [Compound 91], the IC50 is 100 to 500 nM. With `NC1=Nc2ccc(CCc3ccccc3)cc2C1(O)c1ccccc1` (centres unmarked) [Compound 92] the figure was 100 to 500 nM. With `NC1=Nc2ccc(CCCC3CCCCC3)cc2C1(O)c1ccccc1` (centres unmarked) [Compound 93] the figure was 100 to 500 nM; with `NC1=Nc2ccc(Cl)cc2C1(O)c1cccc2nsnc12` (centres unmarked) [Compound 94], 1000 to 5000 nM; with `NC1=Nc2ccc(Cl)cc2C1(O)c1cccc(F)c1F` (centres unmarked) [Compound 95], 100 to 500 nM. With `NC1=Nc2ccc(Cl)cc2C1(O)c1ccccc1C(F)(F)F` (centres unmarked) [Compound 96] the figure was 1 to 100 nM; with `CCc1ccccc1C1(O)C(N)=Nc2ccc(Cl)cc21` (centres unmarked) [Compound 97], 1 to 100 nM; with `NC1=Nc2ccc(Cl)cc2C1(O)c1ccc(Cl)cc1` (centres unmarked) [Compound 98], 100 to 500 nM.

With `NC1=Nc2ccc(-c3cccnc3)cc2C1(O)c1ccccc1` (centres unmarked) [Compound 99], the IC50 lay in the range of 5000 to 15000 nM. With `NC(=O)c1ccc2c(c1)C(O)(c1ccccc1)C(N)=N2` (centres unmarked) [Compound 100] the figure was 5000 to 15000 nM; with `CS(=O)(=O)c1ccc2c(c1)C(O)(c1ccccc1)C(N)=N2` (centres unmarked) [Compound 101], 5000 to 15000 nM; with `NC1=Nc2ccc(Cl)cc2C1(O)c1ccc(C(=O)O)cc1` (centres unmarked) [Compound 102], 5000 to 15000 nM.

Take `CC(=O)Nc1ccccc1C1(O)C(N)=Nc2ccc(Cl)cc21` (centres unmarked) [Compound 103]: the IC50 fell in the range of 5000 to 15000 nM.
